Test results published in patent US20240239799A1, “(S)-1-(5-((PYRIDIN-3-YL)THIO)PYRAZIN-2-YL)-4'H,6'H-SPIRO[PIPERIDINE-4,5'-PYRROLO [1,2-B]PYRAZOL]-4'-AMINE DERIVATIVES AND SIMILAR COMPOUNDS AS SHP2 INHIBITORS FOR THE TREATMENT OF E.G. CANCER” (C.N.C.C.S. S.C.A.R.L. COLLEZIONE NAZIONALE DEI COMPOSTI …, priority 2021, published 2024).

Experiments:
[1] = target: T1, SHP-2 enzyme (Met1-Leu525) (Homo sapiens, UniProt Q06124); experiment: SHP2 inhibition enzymatic assay (DiFMUP substrate, IRS1 peptide activation); assay type: biochemical; conditions: 0.5 nM SHP-2, 500 nM IRS1 peptide, 75 μM DiFMUP; read-out: SHP2wt - IC50
T1 construct: synthetized by Origene, Met1-Leu525, cat #TP750155; purchased Origene TP750155
T1 sequence (Q06124 1-525): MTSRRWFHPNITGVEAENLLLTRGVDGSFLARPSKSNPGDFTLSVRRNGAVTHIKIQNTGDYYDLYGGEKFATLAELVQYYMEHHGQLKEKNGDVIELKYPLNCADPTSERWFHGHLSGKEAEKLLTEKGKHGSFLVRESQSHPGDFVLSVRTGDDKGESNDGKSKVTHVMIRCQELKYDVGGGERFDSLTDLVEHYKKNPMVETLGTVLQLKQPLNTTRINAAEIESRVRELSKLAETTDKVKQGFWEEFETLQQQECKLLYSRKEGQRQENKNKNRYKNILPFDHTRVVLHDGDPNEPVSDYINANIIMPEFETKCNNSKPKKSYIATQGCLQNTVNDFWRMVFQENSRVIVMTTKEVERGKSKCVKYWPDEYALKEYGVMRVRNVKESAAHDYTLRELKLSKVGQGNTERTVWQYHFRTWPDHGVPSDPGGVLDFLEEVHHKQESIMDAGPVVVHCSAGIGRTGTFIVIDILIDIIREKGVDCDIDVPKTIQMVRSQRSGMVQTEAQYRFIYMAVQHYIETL

[2] = tested on: phospho-ERK1/2 (Thr202/Tyr204) in KYSE-520 cells; experiment: Phospho-ERK cellular assay (TR-FRET); assay type: cell-based; conditions: Homo sapiens, KYSE-520, 2 h, KYSE-520 cells, 2 h at 37° C.; read-out: pERK IC50
Method in brief: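 KYSE-520 cells plated overnight, then exposed to compound for 2 h at 37° C and lysed. Phospho-ERK1/2 (Thr202/Tyr204) detected by TR-FRET with Eu-cryptate and D2 antibodies after overnight incubation at rt. IC50 from four-parameter fit, normalised to DMSO (0%) and no-cell (100%) controls.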

Q: `CNC(=O)c1ccn(-c2nccc(Sc3cnc(N4CCC5(CC4)Cn4nccc4[C@H]5N)cn3)c2Cl)c1` [Example 67, (S)-1-(4-((5-(4′-amino-4′H,6′H-spiro[piperidine-4,5′-pyrrolo[1,2-b]pyrazol]-1-yl)pyrazin-2-yl)thio)-3-chloropyridin-2-yl)-N-methyl-1H-pyrrole-3-carboxamide] was tested. Which IC50 [1] did it give?
A: Its IC50 is at most 50 nM.

Q: And the IC50 [2]?
A: The IC50 was under 100 nM.

Q: What does the source list for `CN(C)C(=O)c1cn2ccc(Sc3cnc(N4CCC5(CC4)Cn4nccc4[C@H]5N)cn3)c(Cl)c2n1` [Example 68, (S)-7-((5-(4′-amino-4′H,6′H-spiro[piperidine-4,5′-pyrrolo[1,2-b]pyrazol]-1-yl)pyrazin-2-yl)thio)-8-chloro-N,N-dimethylimidazo[1,2-a]pyridine-2-carboxamide]?
A: IC50 [1]: ≤ 50 nM; IC50 [2]: < 100 nM

Q: With `CN(C)C(=O)c1cnn(-c2nccc(Sc3cnc(N4CCC5(CC4)Cn4nccc4[C@H]5N)cn3)c2Cl)c1` [Example 69, (S)-1-(4-((5-(4′-amino-4′H,6′H-spiro[piperidine-4,5′-pyrrolo[1,2-b]pyrazol]-1-yl)pyrazin-2-yl)thio)-3-chloropyridin-2-yl)-N,N-dimethyl-1H-pyrazole-4-carboxamide] as the compound, how does the IC50 [1] read?
A: The IC50 was at most 50 nM.

Q: What about the IC50 [2] of the same compound?
A: The IC50 was under 100 nM.

Q: `Cn1cc2c(Cl)c(-c3n[nH]c4nc(N5CCC6(CC5)Cn5nccc5[C@H]6N)cnc34)ccc2n1` [Example 70, (S)-1-(3-(4-chloro-2-methyl-2H-indazol-5-yl)-1H-pyrazolo[3,4-b]pyrazin-6-yl)-4′H,6′H-spiro[piperidine-4,5′-pyrrolo[1,2-b]pyrazol]-4′-amine] was tested. Which IC50 [1] did it give?
A: Its IC50 is at most 50 nM.

Q: What about the IC50 [2] of the same compound?
A: Its IC50 is under 100 nM.

Q: Which IC50 [1] does the source give for `N[C@@H]1c2ccnn2CC12CCN(c1cnc3c(-c4ccnc(-n5cccn5)c4Cl)n[nH]c3n1)CC2` [Example 71, (S)-1-(3-(3-chloro-2-(1H-pyrazol-1-yl)pyridin-4-yl)-1H-pyrazolo[3,4-b]pyrazin-6-yl)-4′H,6′H-spiro[piperidine-4,5′-pyrrolo[1,2-b]pyrazol]-4′-amine] here?
A: Its IC50 is at most 50 nM.

Q: What about the IC50 [2] of the same compound?
A: The IC50 was 100 to 500 nM.

Q: With `N[C@@H]1c2ccnn2CC12CCN(c1cnc3nc(Sc4ccnc(-n5cccn5)c4Cl)ccc3n1)CC2` [Example 72, (S)-1-(6-((3-chloro-2-(1H-pyrazol-1-yl)pyridin-4-yl)thio)pyrido[2,3-b]pyrazin-2-yl)-4′H,6′H-spiro[piperidine-4,5′-pyrrolo[1,2-b]pyrazol]-4′-amine] as the compound, how does the IC50 [1] read?
A: Its IC50 is at most 50 nM.

Q: What about the IC50 [2] of the same compound?
A: Its IC50 is 100 to 500 nM.

Q: What does the source list for `Nc1nccc(Sc2ccc3nc(N4CCC5(CC4)Cn4nccc4[C@H]5N)cnc3n2)c1Cl` [Example 73, (S)-1-(6-((2-amino-3-chloropyridin-4-yl)thio)pyrido[2,3-b]pyrazin-2-yl)-4′H,6′H-spiro[piperidine-4,5′-pyrrolo[1,2-b]pyrazol]-4′-amine]?
A: IC50 [1]: ≤ 50 nM; IC50 [2]: < 100 nM

Q: Which results are given for `Cn1c(N2CCC3(CC2)Cn2nccc2[C@H]3N)nc2nc(Sc3ccnc(N)c3Cl)cnc21` [Example 74, (S)-1-(5-((2-amino-3-chloropyridin-4-yl)thio)-1-methyl-1H-imidazo[4,5-b]pyrazin-2-yl)-4′H,6′H-spiro[piperidine-4,5′-pyrrolo[1,2-b]pyrazol]-4′-amine]?
A: IC50 [1]: 50 to 300 nM; IC50 [2]: > 500 nM

Q: How did the IC50 [1] turn out when `N[C@@H]1c2ccnn2CC12CCN(c1cnc(Sc3ccnc(-n4cccn4)c3Cl)c3cncn13)CC2` [Example 75, (S)-1-(8-((3-chloro-2-(1H-pyrazol-1-yl)pyridin-4-yl)thio)imidazo[1,5-a]pyrazin-5-yl)-4′H,6′H-spiro[piperidine-4,5′-pyrrolo[1,2-b]pyrazol]-4′-amine] was run?
A: The IC50 was at most 50 nM.

Q: What about the IC50 [2] of the same compound?
A: The IC50 was 100 to 500 nM.

Q: `Cn1c(N2CCC3(CC2)Cn2nccc2[C@H]3N)ncc(Sc2ccnc(N)c2Cl)c1=O` [Example 76, (S)-5-((2-amino-3-chloropyridin-4-yl)thio)-2-(4′-amino-4′H,6′H-spiro[piperidine-4,5′-pyrrolo[1,2-b]pyrazol]-1-yl)-3-methylpyrimidin-4(3H)-one] was tested. Which IC50 [1] did it give?
A: The IC50 was at most 50 nM.

Q: What about the IC50 [2] of the same compound?
A: Its IC50 is under 100 nM.
